Measurements as given in patent publication US20150148304A1, “Novel Peptides and Analogs for Use in the Treatment of Macrophage Activation Syndrome” (Soligenix, Inc., priority 2013, published 2015).
No end group written: not given here.

How the values were obtained:
[1] = non-GLP pilot toxicology study in nonhuman primates; format: in vivo, cynomolgus monkeys; details: 90, 180 and 220 mg/kg; NHP; resolved within a few minutes
Procedure: Two pilot and 2 definitive repeat-dose toxicity studies were conducted with RIVPA (SEQ ID NO. 5) in mice and cynomolgus monkeys using the intravenous (IV; slow bolus) route of administration.
These resolved within a few minutes without detectable residual effects.

[2] = test system: battery of CNS receptors and ion channels; assay: interaction with a battery of CNS receptors and ion channels in vitro; format: binding
Procedure: No effects of RIVPA (SEQ ID NO. 5) have been observed on the central nervous system (CNS) in any study at any dose level and little or no radiolabelled RIVPA (SEQ ID NO. 5) was found in the mouse CNS at dose levels of either 20 or 90 mg/kg.

[3] = cardiovascular (CV)/pulmonary safety pharmacology study; format: in vivo, cynomolgus monkey
Excerpt: In 1 animal, the high dose caused a marked reduction in respiratory rate followed by bradycardia, hypotension and death.
In summary, the major toxicological finding was an acute-onset respiratory depression, accompanied by labored breathing, recumbency and transient decreased activity.

[4] = Phase 1 study in healthy volunteers, safety (SAD and MAD phases); format: in vivo, human
Excerpt: Clinical experience with RIVPA (SEQ ID NO. 5) was obtained in a Phase 1 Study. The primary objective of the study was to determine the maximum tolerated dose (MTD) of single and repeat ascending doses of RIVPA (SEQ ID NO. 5) injectable solution following IV administration in healthy volunteers. The secondary objectives of this study included the assessment of the dose limiting toxicity (DLT), safety, PK and pharmacodynamic (PD) profiles of RIVPA (SEQ ID NO. 5) after single and repeated ascending IV doses of RIVPA (SEQ ID NO. 5). The study was divided into 2 phases: a single-ascending dose (SAD) phase and a multiple-ascending dose (MAD) phase.
Single IV doses of RIVPA (SEQ ID NO. 5) were well tolerated up to the maximum tested (8 mg/kg) and daily IV doses were well tolerated up to the maximum tested (6.5 mg/kg for 7 days). There were no dose limiting toxicities (DLTs) and the MTD was not reached in either phase of the trial. There were no deaths and no clinically significant, severe, or serious Adverse Events (AEs) reported during the study.
The most frequently reported TEAEs (observed in more than one subject who received RIVPA (SEQ ID NO. 5) and in a higher proportion (%) than placebo subjects) were study treatment procedure-related events (General Disorders and Administration Site Conditions) such as vessel puncture site haematoma, vessel puncture site reaction and vessel puncture site pain. All vessel puncture-related events were mild and determined to be unrelated to study treatment by the QI. The second most frequently reported TEAEs were Nervous System Disorders, specifically headache and dizziness; these events were only mild to moderate. All other TEAEs were reported by only 1 subject at any given dose level (maximum of 3 dose levels).
The incidence of “possibly-related” events was also higher in the 2 highest dose levels. However, due to the small sample sizes (4 subjects received active treatment in each cohort), it was not possible to conclude whether the results definitely represented a dose-response. The majority of the TEAEs were not related to study treatment and were mild in severity with only one event reported as moderate. The most frequently reported TEAEs for subjects who received RIVPA (SEQ ID NO. 5) were General Disorders and Administration Site Conditions (i.e., procedure-related events) such as vessel puncture site haematoma, vessel puncture site reaction, and vessel puncture site pain. All vessel puncture-related events were mild and judged to be unrelated to treatment. Increased alanine aminotransferase (ALT) and back pain were reported by 3 (15.0%) subjects who received RIVPA (SEQ ID NO. 5) and these events were observed by only one (10.0%) subject who received the placebo.

whole blood = assay: ex vivo LPS stimulation of whole blood from Phase 1 subjects, cytokine/chemokine Activity Ratios; format: cell-based, human; details: dose range 0.15-2 mg/kg; 4 hours in vitro LPS stimulation of whole blood
Procedure: In ex vivo investigations using blood samples obtained during the Phase 1 healthy human volunteer study, a number of cytokine and chemokine analytes were quantified after 4 hours of in vitro stimulation of whole blood with LPS. The inter-individual variability in analyte levels was larger than any variation in time or response to RIVPA (SEQ ID NO. 5) or placebo administration and the data were therefore self-normalized using the individual pre-dose analyte level to standardize all responses for each individual subject (the Activity Ratio). RIVPA (SEQ ID NO. 5) effects on the analyte Activity Ratios (ARs) were neither constant throughout time, nor linearly dose responsive.

[5] = test system: macrophage activation syndrome model; assay: CpG (TLR-9 agonist) induced model of macrophage activation syndrome; format: in vivo, C57BL/6 mice
Procedure: Macrophage activation syndrome was simulated in 8-10 week old C57BL/6 mice by repeated administration of the TLR-9 agonist, CpG. CpG (35 μg in 200 μL) or Saline was administered intraperitoneally (IP) on days 0, 2, 4, 7 and 9. SGX94 (200 mg/kg IP) or Saline was administered on days 1, 4 and 7. […] In a repeat study, the same model was used to test administration of saline (Days 1, 4 and 7; control); RIVPA (SEQ ID NO. 5) at 200 mg/kg administered on Days 1, 4 and 7, 400 mg/kg administered on Day 1, 4 and 7 and 400 mg/kg administered on Days 1; 3, 5 and 7. In this experiment CpG (35 μg) was administered on days 0, 2, 4, 7 and 10 and no saline-stimulated controls were used.

[6] = acute toxicity (respiratory depression) dose levels, mouse; format: in vivo
Procedure: (§1) The observed respiratory depression occurred at different dose levels in different species, and was not predicted by allometric scaling. In particular, the mouse appeared to be the most sensitive species with acute toxicity occurring rarely at 60 mg/kg (HED: ˜5 mg/kg) and commonly at 90 mg/kg (HED: ˜7 mg/kg). In contrast in NHP (cynomologus monkey), acute toxicity occurred occasionally at 160 mg/kg (HED: ˜50 mg/kg) and consistently at 240 mg/kg (HED: ˜78 mg/kg).

[7] = acute toxicity (respiratory depression) dose levels, NHP; format: in vivo, cynomologus monkey
Procedure: as §1

[8] = single IV doses of 20 or 80 mg/kg
[9] = Day 8, 200 mg/kg IP days 1, 4 and 7, relative to CpG stimulated, saline treated group
[10] = Day 10, serum, 200 mg/kg IP, first study
[11] = repeat study, 200 mg/kg Days 1, 4, 7, 400 mg/kg Days 1, 4, 7, 400 mg/kg Days 1, 3, 5, 7

## RIVPA-NH2 [RIVPA, L-arginyl-L-isoleucyl-L-valyl-L-prolyl-L-alanine-amide]
[1]
  clinical signs during and shortly after dosing: mild clinical signs
[2]
  interaction with CNS receptors and ion channels: No interaction was detected
[3]; 220 mg/kg, death in 1 animal
  clinical signs at 220 mg/kg: transient, severe clinical signs
[3]; nonhuman primates
  cardiac toxicity or QT prolongation: no cardiac toxicity or QT prolongation
[3]; single IV 80 mg/kg, during dosing
  clinical signs at 80 mg/kg: transient drooping eye lids and prostration
[3]; [8]
  cardiovascular effects and ECG parameters: no cardiovascular effects or changes in electrocardiogram (ECG) parameters
  respiratory effects: No respiratory effects were observed
[4]; MAD phase, placebo one (10.0%) subject
  subjects reporting increased alanine aminotransferase (ALT) and back pain: 3 (15.0%) subjects
[4]; either phase of the trial, no DLTs
  MTD in humans: not reached
[4]; healthy volunteers, SAD phase
  single IV dose well tolerated up to the maximum tested: 8 mg/kg
[4]; healthy volunteers, daily for 7 days, MAD phase
  daily IV dose well tolerated up to the maximum tested: 6.5 mg/kg
Whole blood
  anti-inflammatory status (higher TNF RII and IL-1ra, lower TNFα and IL-1β): evidence of an increase
[5]; [9]
  platelet counts: increased
  white blood cell counts: significantly increased
[5]; Day 10, 200 mg/kg IP, relative to CpG stimulated, saline-treated group
  body weights: increased
[5]; [10]
  IFNγ levels: not significantly altered
  IL-10 levels: not significantly altered
[5]; Day 10, serum, 200 mg/kg IP, relative to CpG stimulated, saline-treated group
  IL-12 levels: decreased
[5]; relative to saline stimulated, saline treated control
  changes in saline stimulated, RIVPA treated group: no significant changes
[5]; repeat study
  IFNγ levels: no significant changes
[5]; [11]
  platelet count: statistically significant increase
  white blood cell count: statistically significant increase
[6]; mouse 60 mg/kg
  HED of dose at which acute toxicity occurs rarely: ~5 mg/kg
[6]; mouse 90 mg/kg
  HED of dose at which acute toxicity occurs commonly: ~7 mg/kg
[7]; NHP 160 mg/kg
  HED of dose at which acute toxicity occurs occasionally: ~50 mg/kg
[7]; NHP 240 mg/kg
  HED of dose at which acute toxicity occurs consistently: ~78 mg/kg
